Measurements reported in US10582709B2, “Butyrolactones as herbicides” (FMC Corporation, priority 2015, dated 2020).

Key:
Assay type in all cases: in vivo
[1] = test system: morningglory (Ipomoea spp.); assay: Test A preemergence, morningglory; settings: 1000 g ai/ha, visual rating after approx. 10 d, 0 to 100 scale, 0 no effect, 100 complete control
From the text: (§1) Seeds of plant species selected from barnyardgrass (Echinochloa crus-galli), crabgrass (large crabgrass, Digitaria sanguinalis), kochia (Kochia scoparia), ragweed (common ragweed, Ambrosia elatior), morningglory (Ipomoea spp.), velvetleaf (Abutilon theophrasti), ryegrass, Italian (Italian ryegrass, Lolium multiflorum), foxtail, giant (giant foxtail, Setaria faberii), wheat (Triticum aestivum), corn (Zea mays), and pigweed (Amaranthus retroflexus), were planted into a blend of loam soil and sand and treated preemergence with a directed soil spray using test chemicals formulated in a non-phytotoxic solvent mixture which included a surfactant. At the same time, plants selected from these crop and weed species and also blackgrass (Alopecurus myosuroides), and galium (catchweed bedstraw, Galium aparine), were planted in pots containing the same blend of loam soil and sand and treated with postemergence applications of test chemicals formulated in the same manner. Plants ranged in height from 2 to 10 cm and were in the one- to two-leaf stage for the postemergence treatment. Treated plants and untreated controls were maintained in a greenhouse for approximately 10 d, after which time all treated plants were compared to untreated controls and visually evaluated for injury. Plant response ratings, summarized in Table A, are based on a 0 to 100 scale where 0 is no effect and 100 is complete control. A dash (-) response means no test result.

[2] = test system: pigweed (Amaranthus retroflexus); assay: Test A preemergence, pigweed; settings: visual rating after approx. 10 d, 0 to 100 scale, 0 no effect, 100 complete control
How it was run: (§2)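 Seeds in loam–sand blend received a preemergence directed soil spray; postemergence sprays went on plants 2–10 cm tall at the one- to two-leaf stage. Compounds were in non-phytotoxic solvent with surfactant. After ~10 d in greenhouse, injury was rated visually versus untreated controls, 0 (no effect) to 100 (complete control).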

[3] = test system: morningglory (Ipomoea spp.); assay: Test A postemergence, morningglory; settings: 1000 g ai/ha, visual rating after approx. 10 d, 0 to 100 scale, 0 no effect, 100 complete control
From the text: as §1

[4] = test system: crabgrass (large crabgrass, Digitaria sanguinalis); assay: Test A postemergence, crabgrass; settings: 1000 g ai/ha, visual rating after approx. 10 d, 0 to 100 scale, 0 no effect, 100 complete control
From the text: as §1

[5] = test system: wheat (Triticum aestivum); assay: Test A preemergence, wheat; settings: 1000 g ai/ha, visual rating after approx. 10 d, 0 to 100 scale, 0 no effect, 100 complete control
From the text: as §1

[6] = test system: barnyardgrass (Echinochloa crus-galli); assay: Test A postemergence, barnyardgrass; settings: visual rating after approx. 10 d, 0 to 100 scale, 0 no effect, 100 complete control
How it was run: as §2

[7] = test system: velvetleaf (Abutilon theophrasti); assay: Test A postemergence, velvetleaf; settings: 1000 g ai/ha, visual rating after approx. 10 d, 0 to 100 scale, 0 no effect, 100 complete control
From the text: as §1

[8] = test system: pigweed (Amaranthus retroflexus); assay: Test A postemergence, pigweed; settings: visual rating after approx. 10 d, 0 to 100 scale, 0 no effect, 100 complete control
How it was run: as §2

[9] = test system: barnyardgrass (Echinochloa crus-galli); assay: Test A preemergence, barnyardgrass; settings: visual rating after approx. 10 d, 0 to 100 scale, 0 no effect, 100 complete control
How it was run: as §2

[10] = test system: corn (Zea mays); assay: Test A preemergence, corn; settings: 1000 g ai/ha, visual rating after approx. 10 d, 0 to 100 scale, 0 no effect, 100 complete control
From the text: as §1

[11] = test system: crabgrass (large crabgrass, Digitaria sanguinalis); assay: Test A preemergence, crabgrass; settings: 1000 g ai/ha, visual rating after approx. 10 d, 0 to 100 scale, 0 no effect, 100 complete control
From the text: as §1

[12] = test system: foxtail, giant (giant foxtail, Setaria faberii); assay: Test A postemergence, giant foxtail; settings: visual rating after approx. 10 d, 0 to 100 scale, 0 no effect, 100 complete control
How it was run: as §2

[13] = test system: foxtail, giant (giant foxtail, Setaria faberii); assay: Test A preemergence, giant foxtail; settings: visual rating after approx. 10 d, 0 to 100 scale, 0 no effect, 100 complete control
How it was run: as §2

[14] = test system: corn (Zea mays); assay: Test A postemergence, corn; settings: visual rating after approx. 10 d, 0 to 100 scale, 0 no effect, 100 complete control
How it was run: as §2

[15] = test system: velvetleaf (Abutilon theophrasti); assay: Test A preemergence, velvetleaf; settings: 1000 g ai/ha, visual rating after approx. 10 d, 0 to 100 scale, 0 no effect, 100 complete control
From the text: as §1

[16] = test system: wheat (Triticum aestivum); assay: Test A postemergence, wheat; settings: visual rating after approx. 10 d, 0 to 100 scale, 0 no effect, 100 complete control
How it was run: as §2

[17] = test system: ragweed (common ragweed, Ambrosia elatior); assay: Test A preemergence, ragweed; settings: visual rating after approx. 10 d, 0 to 100 scale, 0 no effect, 100 complete control
How it was run: as §2

[18] = test system: ryegrass, Italian (Italian ryegrass, Lolium multiflorum); assay: Test A postemergence, Italian ryegrass; settings: visual rating after approx. 10 d, 0 to 100 scale, 0 no effect, 100 complete control
How it was run: as §2

[19] = test system: galium (catchweed bedstraw, Galium aparine); assay: Test A postemergence, galium; settings: visual rating after approx. 10 d, 0 to 100 scale, 0 no effect, 100 complete control
How it was run: as §2

[20] = test system: kochia (Kochia scoparia); assay: Test A postemergence, kochia; settings: visual rating after approx. 10 d, 0 to 100 scale, 0 no effect, 100 complete control
How it was run: as §2

[21] = test system: blackgrass (Alopecurus myosuroides); assay: Test A postemergence, blackgrass; settings: visual rating after approx. 10 d, 0 to 100 scale, 0 no effect, 100 complete control
How it was run: as §2

[22] = test system: kochia (Kochia scoparia); assay: Test A preemergence, kochia; settings: visual rating after approx. 10 d, 0 to 100 scale, 0 no effect, 100 complete control
How it was run: as §2

[23] = test system: barnyardgrass (Echinochloa crus-galli); assay: Test B flooded paddy test, barnyardgrass; settings: 500 g ai/ha; applied to paddy water at 2-leaf stage; 13 to 15 d; scale 0 no effect to 100 complete control
How it was run: (§3)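 Plants at the 2-leaf stage were flooded to 3 cm above soil, and test compounds were applied directly into the paddy water, which was held at that depth throughout. After 13 to 15 d in a greenhouse, injury was rated visually against untreated controls on a 0–100 scale (0 no effect, 100 complete control).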

[24] = test system: ducksalad (Heteranthera limosa); assay: Test B flooded paddy test, ducksalad; settings: 500 g ai/ha; applied to paddy water at 2-leaf stage; 13 to 15 d; scale 0 no effect to 100 complete control
How it was run: as §3

[25] = test system: ragweed (common ragweed, Ambrosia elatior); assay: Test A postemergence, ragweed; settings: visual rating after approx. 10 d, 0 to 100 scale, 0 no effect, 100 complete control
How it was run: as §2

[26] = test system: rice (Oryza sativa); assay: Test B flooded paddy test, rice; settings: 500 g ai/ha; applied to paddy water at 2-leaf stage; 13 to 15 d; scale 0 no effect to 100 complete control
How it was run: as §3

[27] = test system: ryegrass, Italian (Italian ryegrass, Lolium multiflorum); assay: Test A preemergence, Italian ryegrass; settings: visual rating after approx. 10 d, 0 to 100 scale, 0 no effect, 100 complete control
How it was run: as §2

[28] = test system: sedge, umbrella (small-flower umbrella sedge, Cyperus difformis); assay: Test B flooded paddy test, umbrella sedge; settings: 500 g ai/ha; applied to paddy water at 2-leaf stage; 13 to 15 d; scale 0 no effect to 100 complete control
How it was run: as §3

O=C(Nc1ccccc1F)C1C(=O)OCC1c1ccc(F)cc1 (racemic) [Compound 2]
Plant response rating, Morningglory [1]: 0
Plant response rating, Pigweed ([2]; 1000 g ai/ha): 0
Plant response rating, Morningglory [3]: 0
Plant response rating, Crabgrass [4]: 40
Plant response rating, Wheat [5]: 0
Plant response rating, Barnyardgrass ([6]; 1000 g ai/ha): 0
Plant response rating, Velvetleaf [7]: 0
Plant response rating, Pigweed ([8]; 1000 g ai/ha): 0
Plant response rating, Barnyardgrass ([9]; 1000 g ai/ha): 30
Plant response rating, Corn [10]: 0
Plant response rating, Crabgrass [11]: 80
Plant response rating, Foxtail, Giant ([12]; 1000 g ai/ha): 0
Plant response rating, Foxtail, Giant ([13]; 1000 g ai/ha): 50
Plant response rating, Corn ([14]; 1000 g ai/ha): 0
Plant response rating, Velvetleaf [15]: 0
Plant response rating, Wheat ([16]; 1000 g ai/ha): 0

Cc1ccccc1NC(=O)C1C(=O)OCC1c1ccc(F)cc1 (racemic) [Compound 5]
Plant response rating, Morningglory [1]: 0
Plant response rating, Pigweed ([2]; 1000 g ai/ha): 0
Plant response rating, Morningglory [3]: 0
Plant response rating, Crabgrass [4]: 80
Plant response rating, Wheat [5]: 0
Plant response rating, Barnyardgrass ([6]; 1000 g ai/ha): 50
Plant response rating, Velvetleaf [7]: 0
Plant response rating, Pigweed ([8]; 1000 g ai/ha): 0
Plant response rating, Barnyardgrass ([9]; 1000 g ai/ha): 60
Plant response rating, Corn [10]: 0
Plant response rating, Crabgrass [11]: 80
Plant response rating, Foxtail, Giant ([12]; 1000 g ai/ha): 60
Plant response rating, Foxtail, Giant ([13]; 1000 g ai/ha): 70
Plant response rating, Corn ([14]; 1000 g ai/ha): 0
Plant response rating, Velvetleaf [15]: 0
Plant response rating, Wheat ([16]; 1000 g ai/ha): 0

O=C(Nc1cccc(F)c1F)C1C(=O)OCC1c1cccc(C(F)(F)F)c1 (racemic) [Compound 12]
Plant response rating, Ragweed ([17]; 125 g ai/ha): 0
Plant response rating, Ragweed ([17]; 500 g ai/ha): 0
Plant response rating, Ryegrass, Italian ([18]; 125 g ai/ha): 0
Plant response rating, Ryegrass, Italian ([18]; 500 g ai/ha): 0
Plant response rating, Pigweed ([2]; 125 g ai/ha): 0
Plant response rating, Pigweed ([2]; 500 g ai/ha): 0
Plant response rating, Galium ([19]; 125 g ai/ha): 0
Plant response rating, Galium ([19]; 500 g ai/ha): 0
Plant response rating, Kochia ([20]; 125 g ai/ha): 0
Plant response rating, Kochia ([20]; 500 g ai/ha): 0
Plant response rating, Blackgrass ([21]; 125 g ai/ha): 0
Plant response rating, Blackgrass ([21]; 500 g ai/ha): 0
Plant response rating, Barnyardgrass ([6]; 125 g ai/ha): 40
Plant response rating, Barnyardgrass ([6]; 500 g ai/ha): 40
Plant response rating, Pigweed ([8]; 125 g ai/ha): 0
Plant response rating, Pigweed ([8]; 500 g ai/ha): 0
Plant response rating, Barnyardgrass ([9]; 125 g ai/ha): 20
Plant response rating, Barnyardgrass ([9]; 500 g ai/ha): 30
Plant response rating, Kochia ([22]; 125 g ai/ha): 0
Plant response rating, Kochia ([22]; 500 g ai/ha): 20
Plant response rating, Flood, Barnyardgrass [23]: 0
Plant response rating, Flood, Ducksalad [24]: 0
Plant response rating, Foxtail, Giant ([12]; 125 g ai/ha): 30
Plant response rating, Foxtail, Giant ([12]; 500 g ai/ha): 70
Plant response rating, Ragweed ([25]; 125 g ai/ha): 0
Plant response rating, Ragweed ([25]; 500 g ai/ha): 0
Plant response rating, Foxtail, Giant ([13]; 125 g ai/ha): 30
Plant response rating, Foxtail, Giant ([13]; 500 g ai/ha): 60
Plant response rating, Flood, Rice [26]: 0
Plant response rating, Corn ([14]; 125 g ai/ha): 0
Plant response rating, Corn ([14]; 500 g ai/ha): 0
Plant response rating, Ryegrass, Italian ([27]; 125 g ai/ha): 0
Plant response rating, Ryegrass, Italian ([27]; 500 g ai/ha): 20
Plant response rating, Flood, Sedge, Umbrella [28]: 0
Plant response rating, Wheat ([16]; 125 g ai/ha): 0
Plant response rating, Wheat ([16]; 500 g ai/ha): 0
